Source: EPA's ToxValDB 9.5 (doi:10.2903/j.efsa.2006.59r)
Converted amounts (≈) assume the structure as drawn.

Experiments:
[1] = test system: Apis mellifera; conditions: acute, mortality
[2] = test system: Bird
[3] = test system: Daphnia magna; conditions: chronic/long-term; duration: 21 days
[4] = test system: Oncorhynchus mykiss
[5] = test system: Orius insidiosus; conditions: acute, duration: 7 days
[6] = test system: Rattus norvegicus; conditions: oral; for NOAEL: diet, neurology
[7] = test system: Tagia sp.; conditions: mortality

## COP(=S)(OC)Oc1ccc([N+](=O)[O-])c(C)c1 [Fenitrothion]
[1]; dermal
  LD50: 0.16 µg/piece
[1]; oral, unspecified
  LD50: 0.2 µg/piece
[2]; acute, oral, unspecified, mortality
  LD50: 2.3 mg/kg-day
[2]; reproductive
  NOEC: 2.34 mg/kg
[2]; short-term, oral, feed, mortality
  LC50: 23 mg/kg
[3]
  NOEC: 0.087 µg/L
[4]; acute, duration: 96 hours, mortality
  LC50: 1.3 µg/mL (≈ 4.69 µM)
[4]; chronic/long-term, duration: 96 days
  NOEC: 0.088 mg/L
[5]; mortality
  LEL: 715 g/ha
[5]; reproduction
  LEL: 715 g/ha
[6]; acute, mortality
  LD50: 330 mg/kg-day
[6]; chronic, duration: 2 years
  NOAEL: 0.5 mg/kg-day
[6]; subchronic, duration: 90 days
  NOAEL: 1.32 mg/kg-day
[7]; acute
  LC50: 231 mg/kg
[7]; chronic/long-term
  NOEC: 2.5 mg/kg
